According to US6534652B2, “Intermediates for the preparation of substituted 1,2,3,4-tetrahydronaphthalene derivatives” (AstraZeneca AB, priority 1997, dated 2003):

Structure (SMILES)	melting point
CCCCOc1ccc(C(=O)N[C@@H]2CCc3c(O)ccc(N4CCN(C)CC4)c3C2)cc1 [Example 11, (R)-N-[5-Hydroxy-8-(4-methylpiperazin-1-yl)-1,2,3,4-tetrahydro-2-naphthyl]-4-butoxybenzamide]	125 °C (dec.)
O=C(N[C@@H]1CCc2c(Br)ccc(N3CCNCC3)c2C1)c1ccc(N2CCOCC2)cc1 [Example 17, (R)-N-[5-Bromo-8-(piperazin-1-yl)-1,2,3,4-tetrahydro-2-naphthyl]-4-morpholinobenzamide]	228 to 229 °C
COc1ccc(N2CCN(C)CC2)c2c1CC[C@@H](NC(=O)c1ccc(N3CCOCC3)cc1)C2 [Example 25, (R)-N-[5-Methoxy-8-(4-methylpiperazin-1-yl)-1,2,3,4-tetrahydro-2-naphthyl]-4-morpholinobenzamide]	237 to 238 °C
CN1CCN(c2ccc(Br)c3c2C[C@H](NC(=O)c2ccc(C(=O)N4CCOCC4)cc2)CC3)CC1 [Example 28, (R)-N-[5-Bromo-8-(4-methylpiperazin-1-yl)-1,2,3,4-tetrahydro-2-naphthyl]-4-morpholinocarbonylbenzamide]	228 to 230 °C
CCc1ccc(N2CCN(C)CC2)c2c1CC[C@@H](NC(=O)c1ccc(N3CCOCC3)cc1)C2 [Example 42, (R)-N-[5-Ethyl-8-(4-methylpiperazin-1-yl)-1,2,3,4-tetrahydro-2-naphthyl]-4-morpholinobenzamide]	234 °C (dec.)
CN1CCN(c2ccc(Br)c3c2C[C@H](NC(=O)c2ccc(C(F)(F)F)cc2)CC3)CC1 [Example 48, (R)-N-[5-Bromo-8-(4-methylpiperazin-1-yl)-1,2,3,4-tetrahydro-2-naphthyl]-4-trifluoromethylbenzamide]	229 to 230 °C
COCc1ccc(N2CCN(C)CC2)c2c1CC[C@@H](NC(=O)c1ccc(N3CCOCC3)cc1)C2 [Example 51, (R)-N-[5-Methoxymethyl-8-(4-methylpiperazin-1-yl)-1,2,3,4-tetrahydro-2-naphthyl]-4-morpholinobenzamide]	200 °C (dec.)
CN1CCN(c2ccc(O)c3c2C[C@H](NC(=O)c2ccc(N4CCOCC4)cc2)CC3)CC1 [Example 60, (R)-N-[5-Hydroxy-8-(4-methylpiperazin-1-yl)-1,2,3,4-tetrahydro-2-naphthyl]-4-morpholinobenzamide]	84 to 88 °C
Cc1ccc(N2CCNCC2)c2c1CC[C@@H](NC(=O)c1ccc(N3CCOCC3)cc1)C2 [Example 67, (R)-N-[5-Methyl-8-(piperazin-1-yl)-1,2,3,4-tetrahydro-2-naphthyl]-4-morpholinobenzamide]	207 to 210 °C
Cc1ccc(N2CCN(C)CC2)c2c1CC[C@@H](NC(=O)c1ccc(Cl)cc1)C2 [Example 68, (R)-N-[5-Methyl-8-(4-methylpiperazin-1-yl)-1,2,3,4-tetrahydro-2-naphthyl]-4-chlorobenzamide]	210 to 212 °C

Next, values leading:

melting point	Structure (SMILES)
245 to 246 °C	CN1CCN(c2ccc(Br)c3c2C[C@H](NC(=O)c2ccc(N4CCOCC4)cc2)CC3)CC1 [Example 20, (R)-N-[5-Bromo-8-(4-methylpiperazin-1-yl)-1,2,3,4-tetrahydro-2-naphthyl]-4-morpholinobenzamide]
144 °C	CN1CCN(c2ccc(O)c3c2C[C@H](NC(=O)c2ccc(C#N)cc2)CC3)CC1 [Example 26, (R)-N-[5-Hydroxy-8-(4-methylpiperazin-1-yl)-1,2,3,4-tetrahydro-2-naphthyl]-4-cyanobenzamide]
209 to 210 °C	COc1ccc(N2CCN(C)CC2)c2c1CC[C@@H](NC(=O)c1ccc(C(=O)N3CCOCC3)cc1)C2 [Example 27, (R)-N-[5-Methoxy-8-(4-methylpiperazin-1-yl)-1,2,3,4-tetrahydro-2-naphthyl]-4-morpholinocarbonylbenzamide]
237 to 242 °C (dec.)	COc1ccc(C2CCN(C)CC2)c2c1CC[C@@H](NC(=O)c1ccc(N3CCOCC3)cc1)C2 [Example 38, (R)-N-[5-Methoxy-8-(1-methylpiperidin-4-yl)-1,2,3,4-tetrahydro-2-naphthyl]-4-morpholinobenzamide]
222 to 223 °C	CN1CCN(c2ccc(OC(F)F)c3c2C[C@H](NC(=O)c2ccc(N4CCOCC4)cc2)CC3)CC1 [Example 46, (R)-N-[5-Difluoromethoxy-8-(4-methylpiperazin-1-yl)-1,2,3,4-tetrahydro-2-naphthyl]-4-morpholinobenzamide]
